According to ChEMBL document CHEMBL5325403, “Benzenesulfonyl thiazoloimines as unique multitargeting antibacterial agents towards Enterococcus faecalis” (Eur J Med Chem, 2023):
In brackets after ≈: the same amount, converted by molar mass. Activity calls are given as the source filed them. No cut-off for these calls is given here.

Columns and labels:
[1] = tested on: Escherichia coli; assay: Antibacterial activity against Escherichia coli ATCC 25922 assessed as inhibition of bacterial growth by continuous dilution method; type: functional
[2] = tested on: Staphylococcus aureus; assay: Antibacterial activity against Staphylococcus aureus ATCC 25923 assessed as inhibition of bacterial growth by continuous dilution method; type: functional
[3] = tested on: Staphylococcus aureus; assay: Antibacterial activity against methicillin-resistant Staphylococcus aureus N315 assessed as inhibition of bacterial growth by continuous dilution method; type: functional
[4] = tested on: Staphylococcus aureus; assay: Antibacterial activity against Staphylococcus aureus assessed as inhibition of bacterial growth by continuous dilution method; type: functional
[5] = tested on: Staphylococcus aureus; assay: Antibacterial activity against Staphylococcus aureus ATCC 29213 assessed as inhibition of bacterial growth by continuous dilution method; type: functional
[6] = tested on: Enterococcus faecalis; assay: Antibacterial activity against Enterococcus faecalis p1-2007225053 assessed as inhibition of bacterial growth by continuous dilution method; type: functional
[7] = tested on: Enterococcus faecalis; assay: Antibacterial activity against Enterococcus faecalis assessed as inhibition of bacterial growth by continuous dilution method; type: functional
[8] = tested on: Pseudomonas aeruginosa; assay: Antibacterial activity against Pseudomonas aeruginosa assessed as inhibition of bacterial growth by continuous dilution method; type: functional
[9] = tested on: Pseudomonas aeruginosa; assay: Antibacterial activity against Pseudomonas aeruginosa ATCC 27853 assessed as inhibition of bacterial growth by continuous dilution method; type: functional
[10] = tested on: Klebsiella pneumoniae; assay: Antibacterial activity against Klebsiella pneumoniae assessed as inhibition of bacterial growth by continuous dilution method; type: functional
[11] = tested on: Enterococcus faecalis; assay: Antibacterial activity against Enterococcus faecalis p1-2007226001 assessed as inhibition of bacterial growth by continuous dilution method; type: functional
[12] = tested on: Acinetobacter baumannii; assay: Antibacterial activity against Acinetobacter baumannii assessed as inhibition of bacterial growth by continuous dilution method; type: functional
[13] = tested on: Escherichia coli; assay: Antibacterial activity against Escherichia coli assessed as inhibition of bacterial growth by continuous dilution method; type: functional
[14] = tested on: Cell membrane; assay: Disruption of cell membrane integrity in Enterococcus faecalis assessed as increase in protein leakage by Bradford assay
[15] = tested on: Enterococcus faecalis; assay: Antibacterial activity against Enterococcus faecalis assessed as reduction in bacterial growth measured after 16 passages by continuous dilution method; type: functional, organism-based
[16] = Cytotoxicity against human NOK-SI cells assessed as cell viability rate at 20 ug/ml; type: toxicity, cell-based; conditions: at 20 µg/mL, read-out: Activity
[17] = tested on: Calf thymus DNA; assay: Binding affinity to calf thymus DNA assessed as compound DNA complex formation by UV-Vis spectrophotometric analysis; type: nucleic-acid assay; conditions: Bos taurus
[18] = tested on: Enterococcus faecalis; assay: Effect on cell morphology in Enterococcus faecalis assessed as cell deformation at 2 times of MIC incubated for 4 hrs by scanning electron microscopic analysis; type: functional, organism-based
[19] = tested on: Calf thymus DNA; assay: Binding affinity to calf thymus DNA assessed as compound DNA complex formation by measuring fluorescence intensity by acridine orange dye based competitive binding assay; type: nucleic-acid assay; conditions: Bos taurus
[20] = tested on: Cell membrane; assay: Induction of inner membrane permeabilization in Enterococcus faecalis at 4 times of MIC measured at 25 mins by PI staining under fluorescence microscopic analysis
[21] = tested on: Enterococcus faecalis; assay: Antibiofilm activity against Enterococcus faecalis assessed as inhibition of biofilm formation at 0.5 to 6 times of MIC by crystal violet staining based analysis; type: functional, organism-based
[22] = Cytotoxicity against human FHC cells assessed as cell viability rate at 20 ug/ml; type: toxicity, cell-based; conditions: at 20 µg/mL, read-out: Activity
[23] = tested on: Enterococcus faecalis; assay: Antibiofilm activity against Enterococcus faecalis assessed as inhibition of biofilm formation at 6 times of MIC by crystal violet staining based analysis; type: functional; set-up: scale not given: the % may be the effect or the level left
[24] = tested on: Enterococcus faecalis; assay: Induction of oxidative stress in Enterococcus faecalis assessed as decrease in GSH activity at 0.5 to 16 times of MIC by Ellman's method; type: functional, organism-based
[25] = tested on: Enterococcus faecalis; assay: Antibacterial activity against Enterococcus faecalis assessed as log reduction in bacterial growth measured after 6 hrs by continuous dilution method; type: functional
[26] = Hemolytic activity in human RBC assessed as hemolysis at 512 times of MIC measured after 1 hr; type: toxicity, cell-based, Erythrocyte; conditions: red blood cells (erythrocytes), read-out: Activity
[27] = tested on: Enterococcus faecalis; assay: Effect on cell morphology in Enterococcus faecalis assessed as cell shrank at 2 times of MIC incubated for 4 hrs by scanning electron microscopic analysis; type: functional, organism-based
[28] = tested on: Enterococcus faecalis; assay: Antibacterial activity against Enterococcus faecalis assessed as reduction in metabolic activity at 0.5 to 8 times of MIC by alamar blue staining based assay; type: functional, organism-based
[29] = tested on: Calf thymus DNA; assay: Binding affinity to calf thymus DNA assessed as reduction in NR-DNA complex formation by measuring fluorescence intensity by competitive binding assay; type: nucleic-acid assay; conditions: Bos taurus
[30] = tested on: Enterococcus faecalis; assay: Induction of intracellular ROS generation in Enterococcus faecalis by DCFH-DA staining based fluorescence microscopic analysis; type: functional, organism-based
[31] = tested on: Cell membrane; assay: Induction of cytoplasmic membrane depolarization in Enterococcus faecalis at 4 times of MIC by DiSC35 dye-based fluorescence assay; conditions: time <= 80.0 min, TDE = time-dependent effect

CCn1cc(C(=O)O)c(=O)c2cc(F)c(N3CCNCC3)cc21 [NORFLOXACIN]
MIC [1]: 4 µg/mL (≈ 12.5 µM)
MIC [2]: 4 µg/mL (≈ 12.5 µM)
MIC [3]: 8 µg/mL (≈ 25.1 µM)
MIC [4]: 4 µg/mL (≈ 12.5 µM)
MIC [5]: 2 µg/mL (≈ 6.26 µM)
MIC [6]: 8 µg/mL (≈ 25.1 µM)
MIC [7]: 8 µg/mL (≈ 25.1 µM)
MIC [8]: 2 µg/mL (≈ 6.26 µM)
MIC [9]: 2 µg/mL (≈ 6.26 µM)
MIC [10]: 8 µg/mL (≈ 25.1 µM)
MIC [11]: 4 µg/mL (≈ 12.5 µM)
MIC [12]: 4 µg/mL (≈ 12.5 µM)
MIC [13]: 16 µg/mL (≈ 50.1 µM)

CC(=O)Nc1ccc(S(=O)(=O)C/C(=N/NC(=O)c2ccccn2)c2nccs2)cc1
Activity [14]: Dose-Dependent Effect
Activity [15]: Active
MIC [1]: 64 µg/mL (≈ 144 µM)
MIC [2]: 4 µg/mL (≈ 9.02 µM)
MIC [3]: 64 µg/mL (≈ 144 µM)
viability at 20 ug/ml [16]: 65%
Activity [17]: Active
MIC [4]: 4 µg/mL (≈ 9.02 µM)
Activity [18]: Active
Activity [19]: Active
Activity [20]: Active
Activity [21]: Active
MIC [5]: 256 µg/mL (≈ 577 µM)
viability at 20 ug/ml [22]: 45%
Activity [23]: 35%
MIC [6]: 2 µg/mL (≈ 4.51 µM)
Activity [24]: Active
MIC [7]: 1 µg/mL (≈ 2.25 µM)
Activity [25]: Dose-Dependent Effect
log(activity) [25]: 3
MIC [8]: 128 µg/mL (≈ 289 µM)
hemolysis at 1 h, 512 times of MIC [26]: < 3%
Activity [27]: Active
Activity [28]: Active
Activity [29]: Active
MIC [9]: 32 µg/mL (≈ 72.2 µM)
Activity [30]: Dose-Dependent Effect
MIC [10]: 64 µg/mL (≈ 144 µM)
MIC [11]: 4 µg/mL (≈ 9.02 µM)
MIC [12]: 32 µg/mL (≈ 72.2 µM)
MIC [13]: 32 µg/mL (≈ 72.2 µM)
Activity [31]: Tde

CCO/N=C(/CS(=O)(=O)c1ccc(N)cc1)c1nccs1
MIC [1]: 32 µg/mL (≈ 98.3 µM)
MIC [2]: 64 µg/mL (≈ 197 µM)
MIC [3]: 256 µg/mL (≈ 787 µM)
MIC [4]: 256 µg/mL (≈ 787 µM)
MIC [5]: 64 µg/mL (≈ 197 µM)
MIC [7]: 64 µg/mL (≈ 197 µM)
MIC [8]: 64 µg/mL (≈ 197 µM)
MIC [9]: 32 µg/mL (≈ 98.3 µM)
MIC [10]: 32 µg/mL (≈ 98.3 µM)
MIC [12]: 128 µg/mL (≈ 393 µM)
MIC [13]: 16 µg/mL (≈ 49.2 µM)

CC(=O)Nc1ccc(S(=O)(=O)C/C(=N/NC(=O)c2ccccc2)c2nccs2)cc1
MIC [1]: 64 µg/mL (≈ 145 µM)
MIC [2]: 32 µg/mL (≈ 72.3 µM)
MIC [3]: 256 µg/mL (≈ 579 µM)
MIC [4]: 128 µg/mL (≈ 289 µM)
MIC [5]: 256 µg/mL (≈ 579 µM)
MIC [7]: 32 µg/mL (≈ 72.3 µM)
MIC [8]: 128 µg/mL (≈ 289 µM)
MIC [9]: 4 µg/mL (≈ 9.04 µM)
MIC [10]: 256 µg/mL (≈ 579 µM)
MIC [12]: 256 µg/mL (≈ 579 µM)
MIC [13]: 16 µg/mL (≈ 36.2 µM)

CC(=O)Nc1ccc(S(=O)(=O)C/C(=N/Nc2ccc(C(=O)O)cc2)c2nccs2)cc1
MIC [1]: 32 µg/mL (≈ 69.8 µM)
MIC [2]: 32 µg/mL (≈ 69.8 µM)
MIC [3]: 8 µg/mL (≈ 17.4 µM)
MIC [4]: 2 µg/mL (≈ 4.36 µM)
MIC [5]: 32 µg/mL (≈ 69.8 µM)
MIC [7]: 16 µg/mL (≈ 34.9 µM)
MIC [8]: 128 µg/mL (≈ 279 µM)
MIC [9]: 32 µg/mL (≈ 69.8 µM)
MIC [10]: 128 µg/mL (≈ 279 µM)
MIC [12]: 64 µg/mL (≈ 140 µM)
MIC [13]: 64 µg/mL (≈ 140 µM)

Nc1ccc(S(=O)(=O)C/C(=N/OCc2ccc(Cl)cc2Cl)c2nccs2)cc1
MIC [1]: 16 µg/mL (≈ 35.1 µM)
MIC [2]: 64 µg/mL (≈ 140 µM)
MIC [3]: 64 µg/mL (≈ 140 µM)
MIC [4]: 64 µg/mL (≈ 140 µM)
MIC [5]: 64 µg/mL (≈ 140 µM)
MIC [7]: 16 µg/mL (≈ 35.1 µM)
MIC [8]: 64 µg/mL (≈ 140 µM)
MIC [9]: 16 µg/mL (≈ 35.1 µM)
MIC [10]: 32 µg/mL (≈ 70.1 µM)
MIC [12]: 64 µg/mL (≈ 140 µM)
MIC [13]: 32 µg/mL (≈ 70.1 µM)

CC(=O)Nc1ccc(S(=O)(=O)/C(=C\c2ccc(C)cc2)C(=O)c2nccs2)cc1
MIC [1]: 256 µg/mL (≈ 600 µM)
MIC [2]: 256 µg/mL (≈ 600 µM)
MIC [3]: 128 µg/mL (≈ 300 µM)
MIC [4]: 256 µg/mL (≈ 600 µM)
MIC [5]: 256 µg/mL (≈ 600 µM)
MIC [7]: 128 µg/mL (≈ 300 µM)
MIC [8]: 128 µg/mL (≈ 300 µM)
MIC [9]: 128 µg/mL (≈ 300 µM)
MIC [10]: 256 µg/mL (≈ 600 µM)
MIC [12]: 256 µg/mL (≈ 600 µM)
MIC [13]: 256 µg/mL (≈ 600 µM)

CCCCCCCCO/N=C(/CS(=O)(=O)c1ccc(N)cc1)c1nccs1
MIC [1]: 32 µg/mL (≈ 78.1 µM)
MIC [2]: 32 µg/mL (≈ 78.1 µM)
MIC [3]: 64 µg/mL (≈ 156 µM)
MIC [4]: 128 µg/mL (≈ 313 µM)
MIC [5]: 64 µg/mL (≈ 156 µM)
MIC [7]: 32 µg/mL (≈ 78.1 µM)
MIC [8]: 64 µg/mL (≈ 156 µM)
MIC [9]: 16 µg/mL (≈ 39.1 µM)
MIC [10]: 32 µg/mL (≈ 78.1 µM)
MIC [12]: 64 µg/mL (≈ 156 µM)
MIC [13]: 32 µg/mL (≈ 78.1 µM)
